In patent US3978055A, “Arylamino pyrimidinic derivatives” (priority 1973, dated 1976):

Assays:
[1] = system: bronchoconstriction provoked by acetylcholine; assay: Bronchoconstriction provoked by intravenous acetylcholine, Konzett method; format: in vivo; settings: guinea-pig, intraperitoneal injection of 100mg/kg
Experimental: Injected by intraduodenal means, the derivatives of formula I are capable of opposing the bronchoconstriction provoked in the guinea - pig by the intraveinous injection of acetylcholine and evaluated by the Konzett method.
By way of example, the following Table VI lists the percentage inhibition of the bronchoconstriction following the intraperitoneal injection of 100mg/kg of different derivatives of formula I.

[2] = Lethal doses / percentage mortality; format: in vivo; settings: in vivo, mouse
Text: As a result of a comparison between the pharmacologically active doses mentioned above, and the lethal doses listed in the following table XIV, the difference between the doses is sufficiently great to permit the utilisation of the derivatives of formula I in therapeutics.

[3] = system: mortality caused by strychnine; assay: Mortality caused by sub-cutaneous injection of strychnine (myorelaxant); format: in vivo; settings: mouse, 100 mg/kg/p.o.
Experimental: The derivatives of formula I, preventively administered by oral means to the mouse, reduce the mortality caused by the sub-cutaneous injection of strychnine.
Thus, the derivative of Code No. 72608, administered in a dose of 100 mg/kg/p.o., permits a 50 % protection against the lethality of strychnine.

[4] = system: painful stretchings caused by phenylbenzoquinone; assay: Analgesic test with phenylbenzoquinone (painful stretchings); format: in vivo; settings: Mus musculus, po, read-out: Percentage of diminution of the number of painful stretchings
Shay ulcers = assay: Gastric ulcers provoked by tying of the pylorus (Shay ulcers); format: in vivo; settings: intraduodenal; rat, 50mg/kg/i.d.; read-out: Percentage reduction of shay ulcers
Experimental: The derivatives of formula I, administered by oral means, reduce the extent of gastric ulcers provoked in a rat by tying of the pylorus (Shay ulcers)
Table IV indicated, by way of example, the results obtained by the administration of 50mg/kg/i.d. of different derivatives of formula I.

[5] = system: isolated duodenum of the rat; assay: Contractural action of barium chloride in isolated duodenum (spasmolytic); settings: papaverine as standard
Experimental: The derivatives of formula I introduced in the conserving medium, are capable of opposing the contractural action of barium chloride in the isolated duodenum of the rat. This activity is evaluated taking papaverine as standard.

| Compound | Percentage inhibition of bronchoconstriction [1] | mortality ([2]; 1 600 mg/kg/PO) | protection against the lethality of strychnine [3] | inhibition in vivo at 100 mg/kg [4] | inhibition in vivo at 50 mg/kg (Shay ulcers) | spasmolytic activity relative to papaverine [5] | mortality ([2]; 1000 mg/kg, 1 000 mg/kg/PO) |
| --- | --- | --- | --- | --- | --- | --- | --- |
| Cc1cc(Nc2ccccc2C(N)=O)nc(-c2ccc3c(c2)OCO3)n1 [72 608] | 65% | ~50% | 50% | 55% | – | – | – |
| CCCN(CCC)CCOc1ccc(Nc2cc(C)nc(-c3ccccc3)n2)cc1 [730 282] | – | – | – | 73% | 50% | double to that of papaverine | ~50% |
